Laboratory results as given in ChEMBL document CHEMBL1201862, “PubChem BioAssay data set” (2004).
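Grown in 96-well plates, cells were treated for 48 hours with each compound at five concentrations. Insufficient inhibition: endpoint recorded as highest concentration tested. GI50 is the concentration that inhibits growth by half.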 The source made the active and inactive calls. Rule as the data show it: active = GI50 up to about 1.1 µM and inactive = higher.

Experiments:
Assay in all cases: NCI-60 cell line screen, 48 h
[1] = system: HT-29
[2] = system: SW-620
[3] = system: NCI-H23
[4] = system: SK-MEL-5
[5] = system: T47D
[6] = system: ACHN
[7] = system: A498
[8] = system: UO-31
[9] = system: MOLT-4
[10] = system: HOP-92
[11] = system: SR
[12] = system: KM12
[13] = system: SK-MEL-28
[14] = system: DU-145
[15] = system: CCRF-CEM
[16] = system: SNB-19
[17] = system: CAKI-1
[18] = system: SN12C
[19] = system: SF-268
[20] = system: DMS-273

Measured: GI50

CSc1ccc(NC(=O)Nc2cc(C)ccn2)cc1
inactive: [1] > 100 µM | [2] > 100 µM | [3] > 100 µM | [4] > 100 µM | [5] > 100 µM | [6] > 100 µM | [7] > 100 µM | [8] > 100 µM | [9] > 100 µM | [10] > 100 µM | [11] > 100 µM | [12] > 100 µM | [13] > 100 µM | [14] > 100 µM | [15] > 100 µM | [16] > 100 µM | [17] > 100 µM | [18] > 100 µM | [19] > 100 µM

CCOc1ccc(/N=C(/NC(=O)c2ccccc2)SC)cc1
inactive: [1] > 100 µM | [2] 43.4 µM | [3] > 100 µM | [4] > 100 µM | [6] > 100 µM | [7] > 100 µM | [20] > 100 µM | [8] > 100 µM | [9] > 100 µM | [10] > 100 µM | [11] > 100 µM | [13] > 100 µM | [15] 87.1 µM | [16] > 100 µM | [17] > 100 µM | [18] > 100 µM | [19] > 100 µM

COc1cc2cc(C(=O)N3CC(CCl)c4ccccc43)[nH]c2c(OC)c1OC (stereo not drawn)
inactive: [1] 26.8 µM | [2] 60.1 µM | [3] > 100 µM | [4] 24.7 µM | [5] 13.8 µM | [6] > 77.3 µM | [7] 18.2 µM | [8] 47.4 µM | [9] 13.4 µM | [10] > 100 µM | [11] 18.1 µM | [12] 23.5 µM | [13] > 100 µM | [14] 62.1 µM | [15] > 36.6 µM | [16] > 100 µM | [17] 61.2 µM | [18] 5.6 µM | [19] > 100 µM

C#CCN(C(=O)C(F)(F)F)c1ccc(C(=O)c2ccc(N(CC#C)C(=O)C(F)(F)F)cc2)cc1
inactive: [1] 19.5 µM | [2] > 100 µM | [3] 23.2 µM | [4] > 100 µM | [6] 32.7 µM | [20] 24.1 µM | [8] 59.7 µM | [9] 15.1 µM | [10] 34.8 µM | [12] 32.2 µM | [13] 35.3 µM | [15] 25.1 µM | [16] 46.5 µM | [18] 34.9 µM | [19] 38.4 µM

O=S1(=O)OCCOS(=O)(=O)C1(Cl)Cl
inactive: [1] > 100 µM | [2] > 100 µM | [3] > 100 µM | [4] 74.8 µM | [7] > 100 µM | [20] 53.1 µM | [8] 99.8 µM | [9] 42.2 µM | [10] 97.5 µM | [11] 35.6 µM | [12] > 100 µM | [13] > 100 µM | [15] 54.2 µM | [16] 91.4 µM | [17] 47 µM | [18] > 100 µM | [19] 43.5 µM

Cc1cccc2c1NC(=O)/C2=N\Nc1ccccc1[N+](=O)[O-]
inactive: [1] 4.35 µM | [2] 9.82 µM | [3] 6.67 µM | [4] 6.93 µM | [5] 8.83 µM | [6] 2.97 µM | [7] 19.3 µM | [8] 3.55 µM | [9] 21.2 µM | [10] 2.38 µM | [11] 2.7 µM | [12] 6.93 µM | [13] 37.3 µM | [14] 17.7 µM | [15] 6.3 µM | [16] 30.5 µM | [17] 8.09 µM | [18] 9.89 µM | [19] 6.04 µM

C=Cc1c(C)c(OC)cc2c1Oc1ccc(OC)c(C)c1CC2
inactive: [1] > 100 µM | [2] > 100 µM | [3] > 100 µM | [4] 53.6 µM | [5] > 100 µM | [6] > 100 µM | [7] > 100 µM | [8] > 100 µM | [9] > 100 µM | [10] > 100 µM | [11] > 100 µM | [12] > 100 µM | [13] > 100 µM | [14] > 100 µM | [15] > 100 µM | [16] > 100 µM | [17] > 100 µM | [18] > 100 µM | [19] > 100 µM

Cc1cc(N(CCC#N)CCC#N)ccc1/C=C1N=C(/C=C/c2ccccc2)OC(=O)N\1
inactive: [1] > 100 µM | [2] > 100 µM | [3] > 100 µM | [4] > 100 µM | [6] > 100 µM | [7] > 100 µM | [20] > 100 µM | [8] > 100 µM | [9] > 100 µM | [12] > 100 µM | [13] > 100 µM | [15] > 100 µM | [16] > 100 µM | [17] > 100 µM | [18] > 100 µM | [19] > 100 µM

COc1ccc(-c2nc(N)nc(-c3cc(C)ccc3O)c2Cl)cc1
inactive: [1] > 100 µM | [2] > 100 µM | [3] 50.6 µM | [6] 47.2 µM | [7] 43.7 µM | [20] 43.7 µM | [8] 26.7 µM | [9] > 100 µM | [10] 55.1 µM | [11] > 100 µM | [12] 65.5 µM | [13] 47.6 µM | [15] > 100 µM | [16] 32.9 µM | [17] 91.4 µM | [18] 76.7 µM | [19] 26.4 µM

CCO/C=C1\N=C(c2ccccc2Br)OC1=O
inactive: [1] > 100 µM | [2] > 100 µM | [3] > 100 µM | [6] > 100 µM | [7] > 100 µM | [20] > 100 µM | [8] > 100 µM | [9] > 100 µM | [10] > 100 µM | [12] > 10 µM | [13] > 100 µM | [15] > 100 µM | [16] > 100 µM | [17] > 100 µM | [18] > 100 µM | [19] > 100 µM

Cn1c2c([N+](=O)[O-])cccc2c(=O)c2c(O)cc3c(c21)C=CC(C)(C)O3
inactive: [1] 23.4 µM | [2] 69.3 µM | [3] 30.8 µM | [4] 28.3 µM | [6] 43.5 µM | [7] 5.51 µM | [20] 33.2 µM | [8] 40.6 µM | [9] 42.9 µM | [12] 23.2 µM | [13] 84.5 µM | [15] 41 µM | [16] 41.7 µM | [17] 18.7 µM | [18] 52 µM | [19] 38.9 µM

N/C(=N\O)NCCN1CCCCCCC1
inactive: [1] > 100 µM | [2] > 100 µM | [3] > 100 µM | [4] > 100 µM | [5] 80.9 µM | [6] 20.1 µM | [7] > 100 µM | [8] > 100 µM | [9] > 100 µM | [10] > 100 µM | [11] > 100 µM | [12] > 100 µM | [13] > 100 µM | [14] > 100 µM | [15] > 100 µM | [16] > 100 µM | [17] > 100 µM | [18] 37.2 µM | [19] > 100 µM

COC(=O)C(C(=O)C(=O)Nc1nnc(S)[nH]1)c1csc(N)n1 (stereo not drawn)
inactive: [1] > 100 µM | [2] > 100 µM | [3] > 100 µM | [4] > 100 µM | [6] > 100 µM | [7] > 100 µM | [20] > 100 µM | [8] > 100 µM | [9] > 100 µM | [11] > 100 µM | [12] > 100 µM | [13] > 100 µM | [15] > 100 µM | [16] > 100 µM | [17] > 100 µM | [18] > 100 µM | [19] > 100 µM

CSc1ncnc2c1cnn2Cc1cn(COCC(O)CO)nn1 (stereo not drawn)
inactive: [1] > 100 µM | [2] > 100 µM | [3] > 100 µM | [4] > 100 µM | [5] > 100 µM | [6] > 100 µM | [7] > 100 µM | [8] > 100 µM | [9] > 100 µM | [10] > 100 µM | [11] > 100 µM | [12] > 100 µM | [13] > 100 µM | [14] > 100 µM | [15] > 100 µM | [16] > 100 µM | [17] > 100 µM | [18] > 100 µM | [19] 22.8 µM

COc1cc(/C=N\O[Si](C)(C)C(C)(C)C)ccc1O[Si](C)(C)C(C)(C)C
inactive: [1] 47.3 µM | [2] > 100 µM | [4] > 100 µM | [6] 51.4 µM | [20] > 100 µM | [8] > 100 µM | [9] 37.8 µM | [10] 25.4 µM | [12] 83.6 µM | [15] 42.9 µM | [16] 76.9 µM | [17] > 100 µM | [18] > 100 µM | [19] 67.9 µM

C[C@]12C=CC(=O)C=C1CC[C@@H]1[C@@H]2C(=O)C[C@@]2(C)[C@H]1CC[C@]2(O)C(=O)CO [PREDNISONE]
inactive: [1] > 100 µM | [2] > 100 µM | [3] > 100 µM | [4] > 100 µM | [5] > 100 µM | [6] > 100 µM | [7] > 100 µM | [8] > 100 µM | [9] > 100 µM | [10] > 100 µM | [11] > 100 µM | [12] > 100 µM | [13] > 100 µM | [14] > 100 µM | [15] > 100 µM | [16] > 100 µM | [17] > 100 µM | [18] > 100 µM | [19] > 100 µM
